# EP1685248B1, “OXIDOREDUCTASE FROM METSCHNIKOWIA ZOBELLII” (IEP GmbH, priority 2003, dated 2005)
# Read-outs that look alike come from different tables or passages of the source.
# How the values were obtained:
# [1] = test system: Oxidoreduktase aus Metschnikowia zobellii; experiment: Substrate spectrum (relative enzyme activity, standard assay of Example 5.1); type: biochemical
# [2] = test system: rekombinante Oxidoreduktase aus Metschnikowia zobellii; type: biochemical
# [3] = activity with 2-Oxo-4-phenyl-buttersäureethylester set to 100%, NADPH, 25 °C
structure (smiles),measurement,setting,value
"O=C(CCl)CCCl [1,4-Dichlor-butan-2-on]",Relative Aktivität %,[1],27%
CC(=O)Cc1ccccc1 [1-Phenyl-2-propanon],Relative Aktivität %,[1],15%
O=C(CCl)c1ccccc1 [2-Chlor-1-phenyl-ethan-1-on],des eingesetzten Substrats reduziert,"[2]; Nach 48 h, 25 °C, two-phase system",75%
CC1CCCCC1=O (stereo not shown) [2-Methylcyclohexanon],Relative Aktivität %,[1]; [3],8%
CCOC(=O)C1CCCCC1=O (stereo not shown) [2-Oxo-cyclohexan-carbonsäure-ethylester],Relative Aktivität %,[1]; [3],20%
CCOC(=O)C1CCCC1=O (stereo not shown) [2-Oxo-cyclopentan carbonsäure-ethylester],Relative Aktivität %,[1]; [3],8%
O=C(CCl)c1cccc(Cl)c1 [2-chlor-1-(3-chlor-pheny)-ethan-1-on],Relative Aktivität %,[1],5%
CC1CCCC(=O)C1 (stereo not shown) [3-Methylcyclohexanon],Relative Aktivität %,[1]; [3],8%
"COC(=O)CCCCC(=O)CC(=O)OC [3-Oxo-1,8-octandisäure-dimethylester]",Relative Aktivität %,[1]; [3],35%
CCOC(=O)CC(=O)CCl [4-Chloracetessigsäureethylester],Relative Aktivität %,[1],100%
CCOC(=O)CCCCC(=O)CCCl [8-Chlor-6-oxo-octansäure-ethylester],des eingesetzten Substrats reduziert,[2],55%
same,Relative Aktivität %,[1]; [3],50%
CCOC(=O)C(=O)c1ccccc1Cl [(2-chlorphenyl)-oxo-essigsäure ethylester],Relative Aktivität %,[1]; [3],50%
CC(=O)c1ccccc1 [Acetophenon],Relative Aktivität %,[1]; [3],0%
CCC(C)=O [Butan-2-on],Relative Aktivität %,[1],0%
CCCCCCCC(=O)c1ccccc1 [Caprylophenon],Relative Aktivität %,[1]; [3],0%
O=C1CCCCC1 [Cyclohexanon],Relative Aktivität %,[1],3%
CCOC(=O)C(=O)CCc1ccccc1 [Ethyl-2-oxo-4-phenyl-buttersäure],des eingesetzten Substrats reduziert,[2],92%
same,Relative Aktivität %,[1]; [3],100%
CCCC(=O)C(=O)OCC [Ethyl-2-oxovaleriansäure],Relative Aktivität %,[1]; [3],100%
CCOC(=O)C(=O)c1ccccc1 [Ethylphenylglyoxylat],des eingesetzten Substrats reduziert,[2],50%
same,Relative Aktivität %,[1]; [3],50%
